Paper PMC9667936, “Functional mapping of the 14-3-3 hub protein as a guide to design 14-3-3 molecular glues” (Chemical Science, 2022)
Where a SMILES comes first, the peptide text is derived from it. [ ]: non-standard residue; d: D form. The star is where a group is joined. FITC = O=C1OC2(c3ccc(O)cc3Oc3cc(O)ccc32)c2ccc(NC(=S)*)cc21; Phe(4-NO2) = N[C@@H](Cc1ccc([N+](=O)[O-])cc1)C(=O)O; pS = N[C@@H](COP(=O)(O)O)C(=O)O; β3hS = N[C@@H](CO)CC(=O)O; βAla = NCCC(=O)O

Tests used:
[1] = test system: 14-3-3γ with partner peptides (ChREBP, ERα, SOS1, B-Raf, ERRγ, USP8, PIN1, p65); assay: FA selectivity study: 14-3-3 partner peptides titrated to preformed 14-3-3γ/FITC-2d complex; assay type: binding, human; details: partner peptides titrated (from 100 μM) to 2 μM 14-3-3γ and 20 nM FITC-2d; n = 2
Method: (§1) a four-parameter logistic model (4PL). Each measurement was performed in two independent […]
(§2) Fluorescence anisotropy (FA) - 2D-14-3-3/ChREBP titrations: 14-3-3γ was titrated in a 2-fold dilution series (starting at 300 µM 14-3-3γ) to 20 nM of fluorescein-labeled peptide 2d in FA buffer (10 mM HEPES pH 7.4, 150 mM NaCl, 0.1% (v/v) Tween20, 0.1% (w/v) BSA) in presence of 2-fold dilution series of unlabeled ChREBP peptide (0.01-10 µM). Dilution series were made in a polystyrene (non-binding) low-volume Corning Black Round Bottom 384-well plates (Corning 4514 or 4511). Measurements were performed directly after plate preparation, using a Tecan Infinite F500 plate reader at room temperature (lex: 485 ± 20 nm; lem: 535 ± 25 nm; mirror: Dichroic 510; flashes: 20; integration time: 50 ms; settle time:
(§3) 0 ms; gain: optimal; and Z-position: calculated from well). Wells containing only FITC-peptide were used to set as G-factor at 35 mP. All data were analyzed using GraphPad Prism (7.00) for Windows and fitted using a four-parameter logistic model (4PL). […]
(§4) with R = 14-3-3, P = non-natural peptide (labelled), and C = ChREBP. The framework determined based on this system description the equilibrium equations needed to determine KDII and α. […] From this the model determined the KDII and α (with 95% confidence interval) and the error-landscape of the determine parameters. […]

14-3-3γ/ChREBP = target: T1, 14-3-3γ/ChREBP (Homo sapiens, UniProt P61981+Q9NP71); assay: 2D FA titration of 14-3-3/ChREBP and cooperativity analysis with thermodynamic equilibrium model; assay type: binding; details: 14-3-3γ/ChREBP/2d ternary complex; 2D FA titration (20 nM FITC-2d, 0.01–10 μM ChREBP) fitted to thermodynamic equilibrium model; n = 2
T1 construct: made in house; host or cells: E. coli NiCo21 (DE3) for 14-3-3 gamma; ChREBP is a synthetic peptide
T1 sequence (P61981 1-247): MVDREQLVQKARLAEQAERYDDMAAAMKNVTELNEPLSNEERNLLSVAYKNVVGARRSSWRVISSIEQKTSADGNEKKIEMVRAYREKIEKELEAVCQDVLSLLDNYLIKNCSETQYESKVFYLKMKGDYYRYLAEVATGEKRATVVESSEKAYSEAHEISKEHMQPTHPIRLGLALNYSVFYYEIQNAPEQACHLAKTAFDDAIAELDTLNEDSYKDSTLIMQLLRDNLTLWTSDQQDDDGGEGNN
T1 sequence (Q9NP71 118-142 partner limits assumed): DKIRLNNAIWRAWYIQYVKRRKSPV
Method: as §1, §2, §3, §4

## C[C@H](NC(=O)[C@H](CCCCN)NC(=O)[C@H](Cc1ccc([N+](=O)[O-])cc1)NC(=O)CCNC(=O)C[C@H](CO)NC(=O)[C@H](Cc1ccc([N+](=O)[O-])cc1)NC(=O)[C@@H](N)COP(=O)(O)O)C(=O)N[C@@H](CCCCNC(=S)Nc1ccc2c(c1)C(=O)OC21c2ccc(O)cc2Oc2cc(O)ccc21)C(N)=O [2d] (H-[pS][Phe(4-NO2)][β3hS][βAla][Phe(4-NO2)]KAK(FITC)-NH2)
[1]
  selectivity of ternary complex formation over a panel of 14-3-3 partner peptides: highly selective ternary complex formation
14-3-3γ/ChREBP
  cooperativity factor α: 36
